Test results from patent US20140051679A1, “KINASE INHIBITORS AND METHOD OF TREATING CANCER WITH SAME” (UNIVERISTY HEALTH NETWORKS, priority 2011, published 2014).

What was measured:
human TTK = biological target: T1, human TTK (Homo sapiens, UniProt P33981); test: TTK inhibition assay (indirect ELISA); type: biochemical; conditions: GST-TTK 0.68 nM, 16 μM ATP; read-out: IC50 Ranges TTK
T1 construct: amino terminal GST fusion of full length human TTK; purchased Invitrogen
T1 sequence (P33981 1-857): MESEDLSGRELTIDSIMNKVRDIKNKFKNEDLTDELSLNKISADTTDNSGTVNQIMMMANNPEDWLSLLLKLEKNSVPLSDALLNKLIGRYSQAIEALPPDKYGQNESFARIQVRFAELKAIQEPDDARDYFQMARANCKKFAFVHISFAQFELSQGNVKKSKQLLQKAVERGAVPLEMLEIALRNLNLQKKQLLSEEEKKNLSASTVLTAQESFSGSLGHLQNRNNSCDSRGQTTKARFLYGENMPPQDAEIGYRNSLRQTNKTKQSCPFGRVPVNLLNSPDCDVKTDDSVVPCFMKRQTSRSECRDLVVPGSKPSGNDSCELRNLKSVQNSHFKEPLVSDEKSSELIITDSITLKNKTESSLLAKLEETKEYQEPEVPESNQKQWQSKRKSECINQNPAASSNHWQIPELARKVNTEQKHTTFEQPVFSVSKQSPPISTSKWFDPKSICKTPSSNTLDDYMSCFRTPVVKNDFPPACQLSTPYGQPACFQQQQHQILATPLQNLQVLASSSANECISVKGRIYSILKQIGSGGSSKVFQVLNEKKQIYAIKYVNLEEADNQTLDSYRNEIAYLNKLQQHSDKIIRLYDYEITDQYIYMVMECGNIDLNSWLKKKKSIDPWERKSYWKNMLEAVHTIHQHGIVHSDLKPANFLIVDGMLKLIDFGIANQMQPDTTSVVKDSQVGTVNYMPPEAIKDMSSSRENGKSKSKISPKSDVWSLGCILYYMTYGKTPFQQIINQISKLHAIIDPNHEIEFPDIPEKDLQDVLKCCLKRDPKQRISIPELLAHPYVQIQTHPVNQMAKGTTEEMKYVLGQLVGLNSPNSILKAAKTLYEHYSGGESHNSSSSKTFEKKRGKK

human PLK4 = biological target: T2, human PLK4 (Homo sapiens, UniProt O00444); test: PLK4 inhibition assay (indirect ELISA); type: biochemical; conditions: GST-PLK4 4 nM, 15 μM ATP; read-out: IC50 Ranges PLK4
T2 construct: amino terminal GST fusion of residues 1-391 of human PLK4; made in house; host or cells: E. coli
T2 sequence (O00444 1-391): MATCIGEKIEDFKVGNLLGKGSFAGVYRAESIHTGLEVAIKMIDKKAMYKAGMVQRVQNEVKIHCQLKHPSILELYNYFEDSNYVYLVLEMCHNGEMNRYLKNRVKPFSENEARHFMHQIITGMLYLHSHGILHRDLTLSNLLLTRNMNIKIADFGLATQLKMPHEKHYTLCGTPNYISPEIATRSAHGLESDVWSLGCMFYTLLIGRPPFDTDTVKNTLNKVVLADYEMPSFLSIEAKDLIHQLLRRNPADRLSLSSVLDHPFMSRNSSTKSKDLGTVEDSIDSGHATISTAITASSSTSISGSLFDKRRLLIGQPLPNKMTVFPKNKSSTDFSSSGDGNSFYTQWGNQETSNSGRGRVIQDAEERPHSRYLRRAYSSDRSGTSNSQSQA
Procedure, shortened: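 Compounds were tested either at a single 10 μM dose or across 10-point titrations (typically 0.5 to 0.001 μM), preincubated 15 min with 4 nM GST-PLK4 (human 1-391, dephosphorylated) before 15 μM ATP was added. MBP substrate phosphorylation over 30 min, pH 7.5 HEPES/MgCl2 buffer, read by HRP/TMB ELISA (450 nm). % inhibition vs. high-activity control; IC50 by logistic fit.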

Aurora B = biological target: T3, Aurora B (Homo sapiens, UniProt Q96GD4); test: Aurora B inhibition assay (Z-Lyte); type: biochemical; conditions: 28 nM Aurora B, 128 μM ATP; read-out: IC50 Ranges Aurora B
T3 construct: purchased Invitrogen PV3970
Procedure: Aurora B inhibition was determined using the Z-Lyte assay kit from Invitrogen. The assay was performed using the recommended manufacturer's instructions with 128 μM ATP and 28 nM Aurora B (Invitrogen cat #PV3970). The % inhibition values were determined according to the manufacturer's directions and IC50 values were obtained using a non-linear 4 point logistic curve fit (XLfit4, IDBS)

[1] = test system: MDA-MB-231 breast cancer cells; test: Cell growth inhibition, Sulforhodamine B assay, MDA-MB-231; type: cell-based; conditions: Homo sapiens, 120 h, 5 days culture, SRB assay, read-out: Cell Line GI50 Range MDA-MB-231
[2] = test system: MDA-MB-468 breast cancer cells; test: Cell growth inhibition, Sulforhodamine B assay, MDA-MB-468; type: cell-based; conditions: Homo sapiens, 120 h, 5 days culture, SRB assay, read-out: Cell Line GI50 Range MDA-MB-468
[3] = test system: HCT116 colon cancer cells; test: Cell growth inhibition, Sulforhodamine B assay, HCT116; type: cell-based; conditions: Homo sapiens, HCT-116, 120 h, 5 days culture, SRB assay, read-out: Cell Line GI50 Range HCT116
HT29 colon cancer cells = test: Cell growth inhibition, Sulforhodamine B assay, HT29; type: cell-based; conditions: Homo sapiens, HT-29, 120 h, 5 days culture, SRB assay, read-out: Cell Line GI50 Range HT29
[4] = test system: OVCAR-3 ovarian cancer cells; test: Cell growth inhibition, Sulforhodamine B assay, OVCAR-3; type: cell-based; conditions: Homo sapiens, 120 h, 5 days culture, SRB assay, read-out: Cell Line GI50 Range OVCAR-3

T3 sequence (Q96GD4 whole entry): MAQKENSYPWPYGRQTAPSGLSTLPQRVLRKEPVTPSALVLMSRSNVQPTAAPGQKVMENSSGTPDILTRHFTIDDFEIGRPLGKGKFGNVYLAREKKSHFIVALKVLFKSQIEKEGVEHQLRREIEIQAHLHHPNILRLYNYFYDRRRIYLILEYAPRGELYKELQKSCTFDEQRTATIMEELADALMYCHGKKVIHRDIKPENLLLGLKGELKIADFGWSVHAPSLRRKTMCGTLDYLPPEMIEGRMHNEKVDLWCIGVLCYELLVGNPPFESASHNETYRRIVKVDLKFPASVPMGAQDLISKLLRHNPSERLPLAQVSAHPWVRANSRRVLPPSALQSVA

Row | SMILES | IC50 (human TTK) | IC50 (human PLK4) | IC50 (Aurora B) | GI50 [1] | GI50 [2] | GI50 [3] | GI50 (HT29 colon cancer cells) | GI50 [4]
1 | Cc1cc(C)c(NC(=O)Nc2ccc3[nH]nc(-c4ccc(OC5CCN(C)CC5)cc4)c3c2)c(Cl)c1 [Example A77, 1-(2-chloro-4,6-dimethylphenyl)-3-(3-(4-((1-methylpiperidin-4-yl)oxy)phenyl)-1H-indazol-5-yl)urea] | ≤ 5 µM | ≤ 5 µM | ≤ 5 µM | ≤ 5 µM | ≤ 5 µM | ≤ 5 µM | ≤ 5 µM | ≤ 5 µM
2 | CN1CCC(Oc2ccc(-c3n[nH]c4ccc(NC(=O)C(c5ccsc5)N5CCCCC5)cc34)cc2)CC1 (stereo not shown) [Example A31, N-(3-(4-((1-methylpiperidin-4-yl)oxy)phenyl)-1H-indazol-5-yl)-2-(piperidin-1-yl)-2-(thiophen-3-yl)acetamide] | ≤ 5 µM | ≤ 5 µM | ≤ 5 µM | ≤ 5 µM | ≤ 5 µM | ≤ 5 µM | ≤ 5 µM | ≤ 5 µM
3 | CN(C)CCCOc1ccc(-c2n[nH]c3ccc(NC(=O)C(c4ccsc4)N4CCCC4)cc23)cc1 (stereo not shown) [Example A43, N-(3-(4-(3-(dimethylamino)propoxy)phenyl)-1H-indazol-5-yl)-2-(pyrrolidin-1-yl)-2-(thiophen-3-yl)acetamide] | ≤ 5 µM | ≤ 5 µM | ≤ 5 µM | ≤ 5 µM | ≤ 5 µM | ≤ 5 µM | ≤ 5 µM | ≤ 5 µM
4 | O=C(Nc1ccc2[nH]nc(-c3ccc(OC4CCNCC4)c(Cl)c3)c2c1)C(c1ccsc1)N1CCCC1 (stereo not shown) [Example A34, N-(3-(3-chloro-4-(piperidin-4-yloxy)phenyl)-1H-indazol-5-yl)-2-(pyrrolidin-1-yl)-2-(thiophen-3-yl)acetamide] | ≤ 5 µM | ≤ 5 µM | ≤ 5 µM | ≤ 5 µM | ≤ 5 µM | ≤ 5 µM | ≤ 5 µM | ≤ 5 µM
5 | CC[C@@H](NC(=O)c1ccc2[nH]nc(-c3ccc(OC4CCN(C)CC4)cc3)c2c1)c1cccs1 [Example A63, (R)-3-(4-((1-methylpiperidin-4-yl)oxy)phenyl)-N-(1-(thiophen-2-yl)propyl)-1H-indazole-5-carboxamide] | ≤ 5 µM | ≤ 5 µM | ≤ 5 µM | ≤ 5 µM | ≤ 5 µM | ≤ 5 µM | ≤ 5 µM | ≤ 5 µM
6 | O=C(Nc1ccc2[nH]nc(-c3ccc(OCCN4CCCC4)cc3)c2c1)C(c1ccsc1)N1CCCC1 (stereo not shown) [Example A44, 2-(pyrrolidin-1-yl)-N-(3-(4-(2-(pyrrolidin-1-yl)ethoxy)phenyl)-1H-indazol-5-yl)-2-(thiophen-3-yl)acetamideamide] | ≤ 5 µM | ≤ 5 µM | ≤ 5 µM | ≤ 5 µM | ≤ 5 µM | ≤ 5 µM | ≤ 5 µM | ≤ 5 µM
7 | CC[C@@H](NC(=O)c1ccc2[nH]nc(-c3ccc(N4CCOCC4)cc3)c2c1)c1cccs1 [Example A58, (R)-3-(4-morpholinophenyl)-N-(1-(thiophen-2-yl)propyl)-1H-indazole-5-carboxamide] | ≤ 5 µM | ≤ 5 µM | ≤ 5 µM | ≤ 5 µM | ≤ 5 µM | ≤ 5 µM | ≤ 5 µM | ≤ 5 µM
8 | O=C(Nc1ccc2[nH]nc(-c3ccc(N4CCOCC4)cc3)c2c1)C(c1ccsc1)N1CCCCC1 (stereo not shown) [Example A32, N-(3-(4-morpholinophenyl)-1H-indazol-5-yl)-2-(piperidin-1-yl)-2-(thiophen-3-yl)acetamide] | ≤ 5 µM | ≤ 5 µM | ≤ 5 µM | 20 to 50 µM | ≤ 5 µM | ≤ 5 µM | ≤ 5 µM | 5 to 20 µM
9 | CN1CCC(Oc2ccc(-c3n[nH]c4ccc(NC(=O)C(c5ccsc5)N5CCCC5)cc34)cc2Cl)CC1 (stereo not shown) [Example A57, N-(3-(3-chloro-4-((1-methylpiperidin-4-yl)oxy)phenyl)-1H-indazol-5-yl)-2-(pyrrolidin-1-yl)-2-(thiophen-3-yl)acetamide] | ≤ 5 µM | ≤ 5 µM | ≤ 5 µM | ≤ 5 µM | ≤ 5 µM | ≤ 5 µM | ≤ 5 µM | ≤ 5 µM

Next, values leading:

Row | IC50 (human TTK) | IC50 (human PLK4) | IC50 (Aurora B) | GI50 [1] | GI50 [2] | GI50 [3] | GI50 (HT29 colon cancer cells) | GI50 [4] | SMILES
10 | ≤ 5 µM | ≤ 5 µM | ≤ 5 µM | ≤ 5 µM | ≤ 5 µM | ≤ 5 µM | ≤ 5 µM | ≤ 5 µM | CC(C)N1CCC(Oc2ccc(-c3n[nH]c4ccc(NC(=O)C(c5ccsc5)N5CCCC5)cc34)cc2)CC1 (stereo not shown) [Example A30, N-(3-(4-((1-isopropylpiperidin-4-yl)oxy)phenyl)-1H-indazol-5-yl)-2-(pyrrolidin-1-yl)-2-(thiophen-3-yl)acetamide]
11 | ≤ 5 µM | ≤ 5 µM | ≤ 5 µM | ≤ 5 µM | ≤ 5 µM | ≤ 5 µM | ≤ 5 µM | ≤ 5 µM | CN1CCC(Oc2ccc(-c3n[nH]c4ccc(NC(=O)C(c5ccsc5)C5CCCC5)cc34)cc2)CC1 (stereo not shown) [Example A36, 2-cyclopentyl-N-(3-(4-((1-methylpiperidin-4-yl)oxy)phenyl)-1H-indazol-5-yl)-2-(thiophen-3-yl)acetamide]
12 | ≤ 5 µM | ≤ 5 µM | ≤ 5 µM | ≤ 5 µM | ≤ 5 µM | ≤ 5 µM | ≤ 5 µM | ≤ 5 µM | C[C@H](NC(=O)c1ccc2[nH]nc(-c3ccc(OC4CCN(C)CC4)cc3)c2c1)C1CCCCC1 [Example A38, (S)—N-(1-cyclohexylethyl)-3-(4-((1-methylpiperidin-4-yl)oxy)phenyl)-1H-indazole-5-carboxamide]
13 | ≤ 5 µM | ≤ 5 µM | ≤ 5 µM | ≤ 5 µM | ≤ 5 µM | ≤ 5 µM | ≤ 5 µM | 5 to 20 µM | O=C(Nc1ccc2[nH]nc(-c3ccc(OC4CCNCC4)cc3)c2c1)C(c1ccsc1)N1CCCC1 (stereo not shown) [Example A28, N-(3-(4-(piperidin-4-yloxy)phenyl)-1H-indazol-5-yl)-2-(pyrrolidin-1-yl)-2-(thiophen-3-yl)acetamide]
14 | ≤ 5 µM | ≤ 5 µM | ≤ 5 µM | ≤ 5 µM | ≤ 5 µM | ≤ 5 µM | ≤ 5 µM | 5 to 20 µM | O=C(Nc1ccc2[nH]nc(-c3ccc(OCCCN4CCOCC4)cc3)c2c1)C(c1ccsc1)N1CCCC1 (stereo not shown) [Example A45, N-(3-(4-(3-morpholinopropoxy)phenyl)-1H-indazol-5-yl)-2-(pyrrolidin-1-yl)-2-(thiophen-3-yl)acetamide]
